Measurements from ChEMBL document CHEMBL1126413, “Cumindysoside A, a novel cytotoxic trisnortriterpene glucoside with a 14, 18-cycloapoeuphane-type skeleton from Dysoxylum cumingianum” (1992).
Converted amounts (≈) assume the structure as drawn. The source made the active and inactive calls. No cut-off for these calls is given here.

Legend:
HCT-8 = assay: Dose required for in vitro cytotoxic activity against HCT-8 colon carcinoma cells at concentration of 10 ug/ml; NA is no cytotoxicity; type: functional, cell-based; details: Homo sapiens
[1] = Effective dose required for in vitro cytotoxic activity against RPMI-7951 melanoma tumor cells; type: functional; details: Homo sapiens, read-out: ED50 (the source's name)
[2] = Effective dose required for in vitro cytotoxic activity against TE-671 medulloblastoma tumor cells; type: functional; details: Homo sapiens, read-out: ED50 (the source's name)
A549 = assay: Dose required for in vitro cytotoxic activity against A-549 lung carcinoma cells at concentration of 10 ug/ml; NA is no cytotoxicity; type: functional, cell-based; details: Homo sapiens

## C=C(C=O)[C@H](C)[C@@H]1CCC23CC12CC[C@@H]1[C@@]2(C)CC[C@@H](OC(C)=O)C(C)(C)[C@@H]2C[C@@H](O[C@@H]2O[C@H](COC(C)=O)[C@@H](O)[C@H](O)[C@H]2O)[C@]13C (some centres undefined)
HCT-8
  Activity: inactive
[1]
  EC50: 0.34 µg/mL (≈ 0.514 µM)
[2]
  EC50: 2.74 µg/mL (≈ 4.15 µM)
A549
  Activity: inactive
